# Laboratory results from US6737383B1, “Herbicidal oxadiazolidines” (priority 1999, dated 2004).
# Experiments:
# bedstraw = assay: Test B pre/postemergence bedstraw; type: in vivo, Galium aparine
# Method in brief: (§1)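 Test chemicals in a non-phytotoxic solvent mixture with surfactant were sprayed preemergence onto planted seeds and postemergence onto plants 2 to 18 cm tall (1- to 4-leaf stage). After twelve to sixteen days in a greenhouse, injury was visually rated against untreated controls from 0 (no effect) to 10 (complete control).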
# blackgrass = assay: Test B pre/postemergence blackgrass; type: in vivo, Alopecurus myosuroides
# Method in brief: as §1
# surinam grass = assay: Test B pre/postemergence surinam grass; type: in vivo, Brachiaria decumbens
# Method in brief: as §1
# cocklebur = assay: Test B pre/postemergence cocklebur; type: in vivo, Xanthium strumarium
# Method in brief: as §1
# giant foxtail = assay: Test B pre/postemergence giant foxtail; type: in vivo, Setaria faberii
# Method in brief: as §1
# morningglory = assay: Test B pre/postemergence morningglory; type: in vivo, Ipomoea hederacea
# Method in brief: as §1
# pigweed = assay: Test B pre/postemergence pigweed; type: in vivo, Amaranthus retroflexus
# Method in brief: as §1
# rape = assay: Test B pre/postemergence rape; type: in vivo, Brassica napus
# Method in brief: as §1
# soybean = assay: Test B pre/postemergence soybean; type: in vivo, Glycine max
# Method in brief: as §1
# sugar beet = assay: Test B pre/postemergence sugar beet; type: in vivo, Beta vulgaris
# Method in brief: as §1
# wheat = assay: Test B pre/postemergence wheat; type: in vivo, Triticum aestivum
# Method in brief: as §1
# wild oat = assay: Test B pre/postemergence wild oat; type: in vivo, Avena fatua
# Method in brief: as §1
# purple nutsedge = assay: Test B pre/postemergence purple nutsedge; type: in vivo, Cyperus rotundus
# Method in brief: as §1
# smallflower flatsedge = assay: Test B flood test smallflower flatsedge; type: in vivo, Cyperus difformis; conditions: Pre-emergence
# Method in brief: (§2)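 Plants were grown to the 2-leaf stage before treatment with test chemical, then held in a greenhouse for twelve to sixteen days. Injury was visually rated against untreated controls on a 0–10 scale, where 0 is no effect and 10 is complete control.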
# duck salad = assay: Test B flood test duck salad; type: in vivo, Heteranthera limosa; conditions: Pre-emergence
# Method in brief: as §2
# bamyardgrass = assay: Test B flood test barnyardgrass; type: in vivo, Echinochloa crus-galli; conditions: Pre-emergence
# Method in brief: as §2
# [1] = Preemergence, Rate 62 g/ha, scale of 0 to 10 where 0 is no effect and 10 is complete control
# [2] = Preemergence, Rate 250 g/ha, scale of 0 to 10 where 0 is no effect and 10 is complete control
# [3] = Preemergence, Rate 500 g/ha, scale of 0 to 10 where 0 is no effect and 10 is complete control
# [4] = Rate 62 g/ha, Postemergence, scale 0 to 10 (0 no effect, 10 complete control)
# [5] = Rate 125 g/ha, Postemergence, scale of 0 to 10 where 0 is no effect and 10 is complete control
# [6] = Rate 250 g/ha, Postemergence, scale of 0 to 10 where 0 is no effect and 10 is complete control
# [7] = Rate 500 g/ha, Postemergence, scale 0 to 10, 0 no effect, 10 complete control
# [8] = Rate 1000 g/ha, scale 0 to 10 (0 no effect, 10 complete control)
# [9] = Rate 125 g/ha, flood test species, scale 0 to 10 where 0 is no effect and 10 is complete control
# [10] = Rate 250 g/ha, flood-test species, scale 0 to 10, 0 is no effect, 10 is complete control
# [11] = Rate 500 g/ha, flood test species, scale 0 to 10 (0 no effect, 10 complete control)
smiles,measurement,setting,value
C=CCn1c(=O)on(C(=O)N(CC)C2CCCCC2)c1=O [Compound 307],Bedstraw plant response rating,bedstraw; [1],0
same,Bedstraw plant response rating (0 to 10 scale),"bedstraw; Preemergence, Rate 125 g/ha",0
same,Bedstraw plant response rating,bedstraw; [2],0
same,Bedstraw plant response rating,bedstraw; [3],0
same,Bedstraw plant response rating,bedstraw; [4],0
same,Bedstraw plant response rating,bedstraw; [5],0
same,"Plant response rating, Bedstraw",bedstraw; [6],0
same,Bedstraw plant response rating,bedstraw; [7],0
same,Blackgrass plant response rating,blackgrass; [1],0
same,Blackgrass plant response rating (0 to 10 scale),"blackgrass; Preemergence, Rate 125 g/ha",0
same,Blackgrass plant response rating,blackgrass; [2],2
same,Blackgrass plant response rating,blackgrass; [3],4
same,Blackgrass plant response rating,blackgrass; [4],0
same,Blackgrass plant response rating,blackgrass; [5],0
same,"Plant response rating, Blackgrass",blackgrass; [6],0
same,Blackgrass plant response rating,blackgrass; [7],0
same,B. signalgrass plant response rating,surinam grass; [1],0
same,"B. signalgrass plant response rating (0 to 10 scale, 0 is no effect, 10 is complete control)","surinam grass; Preemergence, Rate 125 g/ha",0
same,B. signalgrass plant response rating,surinam grass; [2],0
same,B. signalgrass plant response rating,surinam grass; [3],4
same,B. signalgrass plant response rating,surinam grass; [4],0
same,B. signalgrass plant response rating,surinam grass; [5],0
same,"Plant response rating, B. signalgrass",surinam grass; [6],0
same,B. signalgrass plant response rating,surinam grass; [7],0
same,Cocklebur plant response rating,cocklebur; [1],0
same,Cocklebur plant response rating (0 to 10 scale),"cocklebur; Preemergence, Rate 125 g/ha",0
same,Cocklebur plant response rating,cocklebur; [2],0
same,Cocklebur plant response rating,cocklebur; [4],0
same,Cocklebur plant response rating,cocklebur; [5],0
same,"Plant response rating, Cocklebur",cocklebur; [6],0
same,Cocklebur plant response rating,cocklebur; [7],0
same,Giant foxtail plant response rating,giant foxtail; [1],6
same,Giant foxtail plant response rating (0 to 10 scale),"giant foxtail; Preemergence, Rate 125 g/ha",8
same,Giant foxtail plant response rating,giant foxtail; [2],9
same,Giant foxtail plant response rating,giant foxtail; [3],9
same,Giant foxtail plant response rating,giant foxtail; [4],0
same,Giant foxtail plant response rating,giant foxtail; [5],0
same,"Plant response rating, Giant foxtail",giant foxtail; [6],0
same,Morningglory plant response rating,morningglory; [1],0
same,Morningglory plant response rating (0 to 10 scale),"morningglory; Preemergence, Rate 125 g/ha",0
same,Morningglory plant response rating,morningglory; [2],0
same,Morningglory plant response rating,morningglory; [3],0
same,Morningglory plant response rating,morningglory; [4],0
same,Morningglory plant response rating,morningglory; [5],2
same,"Plant response rating, Morningglory",morningglory; [6],2
same,Redroot pigweed plant response rating,pigweed; [1],0
same,Redroot pigweed plant response rating (0 to 10 scale),"pigweed; Preemergence, Rate 125 g/ha",0
same,Redroot pigweed plant response rating,pigweed; [2],0
same,Redroot pigweed plant response rating,pigweed; [3],4
same,Redroot pigweed plant response rating,pigweed; [4],0
same,Redroot pigweed plant response rating,pigweed; [5],0
same,"Plant response rating, Redroot pigweed",pigweed; [6],0
same,Rape plant response rating,rape; [1],0
same,Rape plant response rating (0 to 10 scale),"rape; Preemergence, Rate 125 g/ha",0
same,Rape plant response rating,rape; [2],0
same,Rape plant response rating,rape; [3],0
same,Rape plant response rating,rape; [4],0
same,Rape plant response rating,rape; [5],0
same,"Plant response rating, Rape",rape; [6],0
same,Soybean plant response rating,soybean; [1],0
same,Soybean plant response rating (0 to 10 scale),"soybean; Preemergence, Rate 125 g/ha",0
same,Soybean plant response rating,soybean; [2],0
same,Soybean plant response rating,soybean; [3],0
same,Soybean plant response rating,soybean; [4],0
same,Soybean plant response rating,soybean; [5],2
same,"Plant response rating, Soybean",soybean; [6],2
same,Sugarbeets plant response rating,sugar beet; [1],0
same,Sugarbeets plant response rating (0 to 10 scale),"sugar beet; Preemergence, Rate 125 g/ha",0
same,Sugarbeets plant response rating,sugar beet; [2],0
same,Sugarbeets plant response rating,sugar beet; [3],2
same,Sugarbeets plant response rating,sugar beet; [4],0
same,Sugarbeets plant response rating,sugar beet; [5],0
same,"Plant response rating, Sugarbeets",sugar beet; [6],0
same,Wheat plant response rating,wheat; [1],0
same,Wheat plant response rating (0 to 10 scale),"wheat; Preemergence, Rate 125 g/ha",0
same,Wheat plant response rating,wheat; [2],0
same,Wheat plant response rating,wheat; [3],0
same,Wheat plant response rating,wheat; [4],0
same,Wheat plant response rating,wheat; [5],0
same,"Plant response rating, Wheat",wheat; [6],0
same,Wild oats plant response rating,wild oat; [1],0
same,Wild oats plant response rating (0 to 10 scale),"wild oat; Preemergence, Rate 125 g/ha",0
same,Wild oats plant response rating,wild oat; [2],0
same,Wild oats plant response rating,wild oat; [3],8
same,Wild oats plant response rating,wild oat; [4],0
same,Wild oats plant response rating,wild oat; [5],0
same,"Plant response rating, Wild oats",wild oat; [6],0
same,Nutsedge plant response rating,purple nutsedge; [1],0
same,Nutsedge plant response rating (0 to 10 scale),"purple nutsedge; Preemergence, Rate 125 g/ha",0
same,Nutsedge plant response rating,purple nutsedge; [2],0
same,Nutsedge plant response rating,purple nutsedge; [3],0
same,Nutsedge plant response rating,purple nutsedge; [4],0
same,Nutsedge plant response rating,purple nutsedge; [5],0
same,"Plant response rating, Nutsedge",purple nutsedge; [6],0
same,S. Flatsedge plant response rating,smallflower flatsedge; [8],0
same,S. Flatsedge plant response rating,smallflower flatsedge; [9],0
same,S. Flatsedge plant response rating,smallflower flatsedge; [10],0
same,S. Flatsedge plant response rating,smallflower flatsedge; [11],0
same,Ducksalad plant response rating,duck salad; [8],0
same,Ducksalad plant response rating,duck salad; [9],0
same,Ducksalad plant response rating,duck salad; [10],0
same,Ducksalad plant response rating,duck salad; [11],0
same,Barnyardgrass plant response rating,bamyardgrass; [8],0
same,Barnyardgrass plant response rating,bamyardgrass; [9],0
same,Barnyardgrass plant response rating,bamyardgrass; [10],0
same,Barnyardgrass plant response rating,bamyardgrass; [11],0
